# US9469854B2, “Pharmaceutical composition for treating liver diseases” (Academia Sinica, priority 2014, dated 2016)
# Legend:
# miR-21-5p = test: qRT-PCR microRNA assay in HepG2 cells; assay type: cell-based, human; settings: HepG2, 40 μM berberine
# Procedure: (§1) The human HepG2 cells and HEK 293T cells used in the following examples were originally obtained from the American Tissue Culture Collection (ATCC, USA). The human HCC HepG2 cell line was cultured in Minimum Essential Medium Eagle (Sigma) supplemented with 10% fetal bovine serum (FBS) (Invitrogen), 2.2 g/L of sodium bicarbonate (Sigma), 0.1 mM of non-essential amino acids (Caisson), 1 mM of sodium pyruvate (Invitrogen), and 10 of ml/L penicillin-streptomycin-amphotericin solution (Biological Industries). Human HEK-293T cells were maintained in high-glucose Dulbecco's modified eagle medium (Invitrogen) supplemented with 10% FBS and 3.7 g/L of sodium bicarbonate (Sigma). Both cell lines were cultured at 37° C. and 5% CO2. A 50 mM stock solution of berberine chloride (Sigma-Aldrich) was prepared in dimethyl sulfoxide (DMSO). Cells were treated with 40 μM of berberine chloride or 0.08% DMSO as the control. For induction of lipid droplets formation in cultured cells, 200 μM of oleic acid (Sigma-Aldrich) was added into the culture medium for 24 h. Total RNA was extracted using a TRIZOL reagent (Invitrogen) according to the manufacturer's protocol. The total RNA quantity was measured using a NanoDrop ND-1000 spectrophotometer (Nanodrop Technologies). The total RNA quality and integrity were assayed using an Agilent 2100 bioanalyzer with an RNA 6000 nano kit (Agilent Technologies). […] The microRNA expression levels were normalized to RNU6B levels.
# miR-21-3p = test: qRT-PCR microRNA assay in HepG2 cells; assay type: cell-based, human; settings: HepG2, 40 μM berberine
# Procedure: as §1
# IL6R = test: qRT-PCR mRNA expression in primary human hepatocytes; assay type: cell-based; settings: PHH, 40 μM berberine, 4-8 h
# Procedure: (§2) The primary human hepatocytes from Caucasian donors were purchased from Invitrogen and cultured following the manufacturer's instructions. The hepatocytes were thawed and transferred into cryopreserved hepatocytes recovery medium (CM7000, Invitrogen), centrifuging at room temperature, 100×g for 10 min. Then, the hepatocytes were diluted to seeding density with plating medium (CM3000, Invitrogen) and added into collagen I-coated plates (Invitrogen). These plates were incubated at 37° C. for 4-6 hours under 5% CO2 for forming a monolayer. Then, plating medium was replaced by overlay incubation medium (CM4000 and 0.35 mg/mL Geltrex™ Matrix, Invitrogen), and the incubation medium was replaced daily. In the following examples, hepatocytes form 3 to 4 donors were used for experiments. A 50 mM stock solution of berberine chloride (Sigma-Aldrich) was prepared in dimethyl sulfoxide (DMSO). Cells were treated with 40 μM of berberine chloride or 0.08% DMSO as the control. For induction of lipid droplets formation in cultured cells, 200 μM of oleic acid (Sigma-Aldrich) was added into the culture medium for 24 h. Total RNA was extracted using a TRIZOL reagent (Invitrogen) according to the manufacturer's protocol. The total RNA quantity was measured using a NanoDrop ND-1000 spectrophotometer (Nanodrop Technologies). The total RNA quality and integrity were assayed using an Agilent 2100 bioanalyzer with an RNA 6000 nano kit (Agilent Technologies). Total RNAs (1 μg) were reverse-transcribed into cDNA by using M-MuLV Reverse Transcriptase (Thermo) and Oligo(dT)12-18 primers (Invitrogen) according to the manufacturer's protocol. The cDNA were then used for a real-time PCR with a LightCycler 480 SYBR Green I Master (Roche) by using primers shown in the following Table 1. The gene expression levels were normalized to GAPDH levels.
# ACSM2A = test: as above; assay type: cell-based; settings: PHH, 40 μM berberine, 2-4 h
# Procedure: as §2
# NAMPT = test: as above; assay type: cell-based; settings: PHH, 40 μM berberine, 4-8 h
# Procedure: as §2
# ACACA = test: Western blot protein expression in HepG2 cells; assay type: cell-based, human; settings: HepG2, mimic transfection, 72 h
# Procedure: (§3) The human HepG2 cells and HEK 293T cells used in the following examples were originally obtained from the American Tissue Culture Collection (ATCC, USA). The human HCC HepG2 cell line was cultured in Minimum Essential Medium Eagle (Sigma) supplemented with 10% fetal bovine serum (FBS) (Invitrogen), 2.2 g/L of sodium bicarbonate (Sigma), 0.1 mM of non-essential amino acids (Caisson), 1 mM of sodium pyruvate (Invitrogen), and 10 of ml/L penicillin-streptomycin-amphotericin solution (Biological Industries). Human HEK-293T cells were maintained in high-glucose Dulbecco's modified eagle medium (Invitrogen) supplemented with 10% FBS and 3.7 g/L of sodium bicarbonate (Sigma). Both cell lines were cultured at 37° C. and 5% CO2.
# (§4) The HepG2 cells were transfected at a density of 5×10^4 cells per well in a 24-well culture plates with either 50 nM of hsa-miR-21-3p (miR-21-3p mimic) or negative-control mimic (NC mimic), or with either 100 nM of hsa-miR-21-3p inhibitor (miR-21-3p inhibitor) or negative-control inhibitor (NC inhibitor) by using the DharmaFECT 4 transfection reagent (Thermo Scientific Dharmacon) according to the manufacturer's instructions. Cells were incubated for 24 h or 48 h with a microRNA mimic or inhibitor prior to RNA purification for gene expression analysis, and were incubated for 72 h for protein expression analysis.
# (§5) Total cell lysates were prepared using a lysis buffer (7 M of urea, 4% CHAPS, 2 M of thiourea, 40 mM of Tris, 65 mM of dithioerythritol). Protein samples were separated using 12.5% SDS-PAGE and then transferred to PVDF membranes. The following primary antibodies were used: rabbit polyclone anti-MAT1A (1:800, GeneTex), anti-MAT2A (1:1000, GeneTex), anti-MAT2B (1:1000, GeneTex), anti-ACACB (1:1000, Sigma), anti-DGAT2 (1:1000, GeneTex) and anti-GAPDH (1:3000, GeneTex) and mouse monoclone anti-ACACA (1:1000, Millipore). The goat polyclonal anti-rabbit or anti-mouse IgG antibody conjugated with HRP (1:5000, abcam) was used as the secondary antibody. The bands were imaged using the LAS-4000 mini luminescent image analyzer (Fujifilm). The quantification of western blot analysis was achieved by using Image J software. The protein expression levels were normalized to the GAPDH levels.
# MAT2B = test: Western blot protein expression in HepG2 cells; assay type: cell-based, human; settings: HepG2, mimic transfection 72 h
# Procedure: as §3, §4, §5
# MAT1A = test: Western blot protein expression in HepG2 cells; assay type: cell-based, human; settings: HepG2, mimic transfection 72 h
# Procedure: as §3, §4, §5
# DGAT2 = test: Western blot protein expression in HepG2 cells; assay type: cell-based, human; settings: HepG2, miR-21-3p over-expressed, 72 h
# Procedure: as §3, §4, §5
# ACACB = test: Western blot protein expression in HepG2 cells; assay type: cell-based, human; settings: HepG2, mimic transfection, 72 h
# Procedure: as §3, §4, §5
# MAT2A = test: Western blot protein expression in HepG2 cells; assay type: cell-based, human; settings: HepG2, mimic transfection 72 h
# Procedure: as §3, §4, §5
Compound,miR-21-5p level increase (qRT-PCR) (miR-21-5p; 2 h) [fold],miR-21-5p expression change (qRT-PCR) (miR-21-5p; 4 h and 8 h),miR-21-3p level increase (qRT-PCR) (miR-21-3p; 1 h vs untreated control) [fold],miR-21-3p level increase (qRT-PCR) (miR-21-3p; 2 h (peak) vs untreated control) [fold],miR-21-3p level increase (qRT-PCR) (miR-21-3p; 8 h vs untreated control) [fold],mRNA expression of IL6R (IL6R),mRNA expression of ACSM2A (ACSM2A),mRNA expression of NAMPT (NAMPT),decrease in protein expression of ACACA (ACACA) [fold],MAT2B protein expression decrease (MAT2B) [fold],MAT1A protein expression increase (MAT1A) [fold],decrease in protein level of DGAT2 (DGAT2) [fold],decrease in protein expression of ACACB (ACACB) [fold],MAT2A protein expression decrease (MAT2A) [fold]
COc1ccc2cc3[n+](cc2c1OC)CCc1cc2c(cc1-3)OCO2 [berberine],2,no significant differences,2.1,3.5,2.8,decreases,considerably decreases,increase,,,,,,
"hsa-miR-21-3p (CAACACCAGUCGAUGGGCUGU; listed as RNA, chemistry not given here) [miR-21-3p mimic]",,,,,,,,,2.3,3.4,1.7,3.3,1.6,2.6
